≈ marks a conversion by molar mass, not a printed value. Where only a bound is given, the exact number is not on record here.

A short description of series [1]: Kinetic solubility. It counts as physicochemical. Particulars: Dulbecco's phosphate buffer saline (DPBS), aqueous buffer, kinetic from dmso stock, DPBS pH 7.4, 25° C., 200 μM test compound. The method, then:
Example 144. Kinetic Solubility
10 μL of 10 mM DMSO stock solution were aliquotted to 490 μL of DMSO solution and separately 490 μL of Dulbecco's phosphate buffer saline, DPBS, pH 7.4 solution in 1.2 mL 96-well plates in duplicate. Final concentration was 200 μM of the test compound. Samples were incubated at 25° C. with shaking at 200 rpm for 16 h. Samples were centrifuged at 3500 rpm for 20 min at 25° C., and supernatant was submitted for HPLC analysis.
Kinetic solubility was measured using the following equation: […]

Series [2] has as its system Human Heme Oxygenase-1 (HMOX-1). Briefly: ELISA assay to measure human heme oxygenase-1 (HMOX-1) in HepG2 lysate. Particulars: for EC50: human HMOX1 protein level in HepG2 lysate, * = average of 2 or more EC50 determinations, NA = Not Active, read-out: EC50. Format: cell-based. How it is done:
Example 143. ELISA Assay to Measure Human Heme Oxygenase-1 (HMOX-1) in HepG2 lysate
Reagents and Technical Notes:
ELISA capture antibody, standard HO-1, detection antibody and streptavidin HRP were supplied in the DuoSet IC Human total HO-1 ELISA from R&D systems (DYC3776-2). The substrate cocktail was KPL LumiGLO reserve Chemiluminescent Substrate (54-71-00). PBS was Corning Cellgro Cell Culture (21-040-CV). 10×PBS+0.05% tween20 (PBST) was from KPL.
All incubations of the plate were at room temperature (20° C.) in a closed drawer.
The ELISA plate was processed manually. All loadings were with a multichannel pipet. Plates were emptied by shaking into the sink and tapping onto paper towels to remove any remaining reagent. Plate washing was accomplished by loading all wells with PBS+0.05% tween20 (PBST) using a squirt bottle, shaking the PBST out and tapping the plate onto paper towels.
Preparation of the ELISA Plate:
• 1. anti-HO-1 capture antibody was 1440 μg/ml after reconstitution in PBS. This antibody was diluted to 8 μg/ml in PBS and 50 μl per well was added to a 384 well greiner “lumitrac 200” plate. Incubated overnight. • 2. The plate was emptied and 100 μl PBS+1% BSA added to all wells. Incubated 90 minutes at room temperature. Preparation of HepG2 Lysate: • 1. Cells were cultured in a 96-well tissue culture plate washed with PBS and then the plate frozen at −70° C. overnight. Plates were allowed to warm to ice temperature in an ice bucket. 20 μl of PBS, 0.5% Triton X100, 1 mM EDTA with 1×HALT™ protease inhibitors was added to each well and the plates incubated on ice for 1 hour. • 2. The lysates were frozen at −20° C. overnight. Measurement of HMOX1 (“HO-1”) • 1. In a polypropylene 384 well plate, human HO-1 (after reconstitution in PBS+0.5% Triton+1 mM EDTA) was serially diluted from 20 ng/ml 2-fold in PBS+0.5% triton-X100, 1 mM EDTA to make a 12-point standard curve including a zero point. • 2. In a polypropylene 96 well plate, HepG2 lysate was diluted 1 to 20 in Diluent #4 from DUOSET kit in which the assay standard is also diluted. • 3. The PBS+1% BSA was emptied from the ELISA plate and 30 μl of all samples and standards were added (duplicates recommended). The plate was incubated 90 minutes. • 4. Emptied plate and washed 4 times with PBST. • 5. Diluted HO-1 detection antibody to 200 ng/ml in PBS+1% BSA and added 30 μl to all wells. Incubated 90 minutes. • 6. Emptied plate and washed 4 times with PBST. • 7. Added 30 μl streptavidin HRP at 1/200 in PBS+1% BSA (stock streptavidin concentration not specified) to all wells. Incubated 30 minutes. • 8. Emptied plate and washed 4 times with PBST. • 9. Diluted Lumiglo reserve reagent two parts buffer to one part lumiglo substrate. Added 30 μl to all wells. Incubated 5 minutes. • 10. Measured chemiluminescence on spectramax M5 using 150 ms integration.
Table 1 below lists EC50 and fold changes of human HMOX1 protein levels relative to DMSO control upon treatment with representative compounds.

A word on the solubility: it is how much of the substance goes into solution per volume. In general, EC50 refers to the concentration giving half of the maximal effect. For the molecule `CC(C)C(N)C(=O)OCCOCCNC(=O)c1ccc2c(c1)nc(Nc1nc3ccccc3o1)n2C.Cl` (racemic) [Example 30, 2-(2-(2-(benzo[d]oxazol-2-ylamino)-1-methyl-1H-benzo[d]imidazole-5-carboxamido)ethoxy)ethyl DL-valinate hydrochloride], in series [1], the solubility at 16 h amounted to 3.2 µM. Besides, the EC50 in series [2] worked out at 3.5 µM. With `CC(=O)N1CCc2nc(Nc3nc4cc(C(=O)NCCOCCO)ccc4n3C)sc2C1` [Example 10, 2-((5-acetyl-4,5,6,7-tetrahydrothiazolo[5,4-c]pyridin-2-yl)amino)-N-(2-(2-hydroxyethoxy)ethyl)-1-methyl-1H-benzo[d]imidazole-5-carboxamide], the solubility at 16 h in series [1] was found to be 8.6 µM (≈ 3.94 µg/mL). Take `Cn1c(Nc2nc3ccccc3o2)nc2cc(C(=O)NCC(O)CO)ccc21` (stereo not drawn) [Example 24, 2-(benzo[d]oxazol-2-ylamino)-N-(2,3-dihydroxypropyl)-1-methyl-1H-benzo[d]imidazole-5-carboxamide]: in series [1], the solubility at 16 h is 12.4 µM (≈ 4.73 µg/mL). The molecule `Cn1c(Nc2nc3ccccc3o2)nc2cc(C(=O)NCCOCC(C)(C)O)ccc21` [Example 27, 2-(benzo[d]oxazol-2-ylamino)-N-(2-(2-hydroxy-2-methylpropoxy)ethyl)-1-methyl-1H-benzo[d]imidazole-5-carboxamide] displayed a solubility at 16 h in series [1] of 10.6 µM (≈ 4.49 µg/mL).

For `Cn1c(Nc2nc3ccccc3o2)nc2cc(C(=O)NCCOCC(=O)O)ccc21` [Example 29, 2-(2-(2-(benzo[d]oxazol-2-ylamino)-1-methyl-1H-benzo[d]imidazole-5-carboxamido)ethoxy)acetic acid], the solubility at 16 h in series [1] came out at 19.3 µM (≈ 7.9 µg/mL).

As for `COCCNC(=O)c1ccc2c(c1)nc(Nc1nc3ccc(C(F)(F)F)cc3o1)n2C` [Example 32, N-(2-methoxyethyl)-1-methyl-2-((6-(trifluoromethyl)benzo[d]oxazol-2-yl)amino)-1H-benzo[d]imidazole-5-carboxamide], the solubility at 16 h in series [1] stood at 1.4 µM (≈ 0.607 µg/mL). Also, the EC50 in series [2] was 0.5 µM. With `CC(O)CNC(=O)c1ccc2c(c1)nc(Nc1nc3ccc(C(F)(F)F)cc3o1)n2C` (stereo not drawn) [Example 35, N-(2-hydroxypropyl)-1-methyl-2-((6-(trifluoromethyl)benzo[d]oxazol-2-yl)amino)-1H-benzo[d]imidazole-5-carboxamide], the solubility at 16 h in series [1] is under 2 µM. The EC50 in series [2] worked out at 1.2 µM. For `Cn1c(Nc2nc3ccc(C(F)(F)F)cc3o2)nc2cc(C(=O)NCCN3CCCC3)ccc21` [Example 36, 1-methyl-N-(2-(pyrrolidin-1-yl)ethyl)-2-((6-(trifluoromethyl)benzo[d]oxazol-2-yl)amino)-1H-benzo[d]imidazole-5-carboxamide], in series [1], the solubility at 16 h is 2.8 µM (≈ 1.32 µg/mL). For the same molecule, the EC50 in series [2] was found to be 1.3 µM. With `Cn1c(Nc2nc3ccc(C(F)(F)F)cc3o2)nc2cc(C(=O)NCCN3CCCCC3)ccc21` [Example 37, 1-methyl-N-(2-(piperidin-1-yl)ethyl)-2-((6-(trifluoromethyl)benzo[d]oxazol-2-yl)amino)-1H-benzo[d]imidazole-5-carboxamide], the solubility at 16 h in series [1] is under 2 µM. For `CC(O)COCCNC(=O)c1ccc2c(c1)nc(Nc1nc3ccc(C(F)(F)F)cc3o1)n2C` (stereo not drawn) [Example 38, N-(2-(2-hydroxypropoxy)ethyl)-1-methyl-2-((6-(trifluoromethyl)benzo[d]oxazol-2-yl)amino)-1H-benzo[d]imidazole-5-carboxamide], the solubility at 16 h in series [1] is under 2 µM. Moreover, in series [2], the EC50 stood at 1.3 µM. Regarding `Cn1c(Nc2nc3ccc(C(F)(F)F)cc3o2)nc2cc(C(=O)NCC(O)CO)ccc21` (stereo not drawn) [Example 39, N-(2,3-dihydroxypropyl)-1-methyl-2-((6-(trifluoromethyl)benzo[d]oxazol-2-yl)amino)-1H-benzo[d]imidazole-5-carboxamide], the solubility at 16 h in series [1] stood at 2.1 µM (≈ 0.944 µg/mL). Further, the EC50 in series [2] came to 0.95 µM. On the same counts, the results for `CN(C)CC(=O)NCCNC(=O)c1ccc2c(c1)nc(Nc1nc3ccc(C(F)(F)F)cc3o1)n2C` [Example 40, N-(2-(2-(dimethylamino)acetamido)ethyl)-1-methyl-2-((6-(trifluoromethyl)benzo[d]oxazol-2-yl)amino)-1H-benzo[d]imidazole-5-carboxamide] are 0.5 µM (≈ 0.252 µg/mL) and 0.69 µM.

`Cn1c(Nc2nc3ccc(C(F)(F)F)cc3o2)nc2cc(C(=O)NCCOCC(=O)O)ccc21` [Example 41, 2-(2-(1-methyl-2-((6-(trifluoromethyl)benzo[d]oxazol-2-yl)amino)-1H-benzo[d]imidazole-5-carboxamido)ethoxy)acetic acid]: the solubility at 16 h in series [1] is 13.8 µM (≈ 6.59 µg/mL). In series [2], the EC50 is 4.8 µM. For `Cn1c(Nc2nc3ccc(C(F)(F)F)cc3o2)nc2cc(C(=O)NCCOCC(C)(C)O)ccc21` [Example 42, N-(2-(2-hydroxy-2-methylpropoxy)ethyl)-1-methyl-2-((6-(trifluoromethyl)benzo[d]oxazol-2-yl)amino)-1H-benzo[d]imidazole-5-carboxamide], in series [1], the solubility at 16 h turned out to be 3.6 µM (≈ 1.77 µg/mL). In addition, in series [2] (fold change of human HMOX1 protein level relative to DMSO control, HepG2), the “Maximum Fold induction” value is 29 fold. The EC50 in series [2] was 2.3 µM. `Cn1c(Nc2nc3cc(C(F)(F)F)ccc3o2)nc2cc(C(=O)NCCOCCO)ccc21` [Example 43, N-(2-(2-hydroxyethoxy)ethyl)-1-methyl-2-((5-(trifluoromethyl)benzo[d]oxazol-2-yl)amino)-1H-benzo[d]imidazole-5-carboxamide] came in with a solubility at 16 h in series [1] of 8 µM (≈ 3.71 µg/mL). Further, the EC50 in series [2] was found to be 1.3 µM. For `COCCNC(=O)c1ccc2c(c1)nc(Nc1nc3ccc(OC(F)(F)F)cc3o1)n2C` [Example 45, N-(2-methoxyethyl)-1-methyl-2-((6-(trifluoromethoxy)benzo[d]oxazol-2-yl)amino)-1H-benzo[d]imidazole-5-carboxamide], in series [1], the solubility at 16 h was 0.2 µM (≈ 0.0899 µg/mL). The EC50 in series [2] came out at 0.64 µM. Molecule `Cn1cc(NC(=O)c2ccc3c(c2)nc(Nc2nc4ccc(OC(F)(F)F)cc4o2)n3C)cn1` [Example 50, 1-methyl-N-(1-methyl-1H-pyrazol-4-yl)-2-((6-(trifluoromethoxy)benzo[d]oxazol-2-yl)amino)-1H-benzo[d]imidazole-5-carboxamide] showed a solubility at 16 h in series [1] of 4 µM (≈ 1.89 µg/mL). In the case of `Cn1c(Nc2nc3ccc(C(F)(F)F)nc3o2)nc2cc(C(=O)NCCO)ccc21` [Example 113, N-(2-hydroxyethyl)-1-methyl-2-((5-(trifluoromethyl)oxazolo[5,4-b]pyridin-2-yl)amino)-1H-benzo[d]imidazole-5-carboxamide], in series [1], the solubility at 16 h was determined as 9.1 µM (≈ 3.83 µg/mL). Regarding `Cn1c(Nc2nc3nccnc3s2)nc2cc(C(=O)NCCOCCO)ccc21` [Example 114, N-(2-(2-hydroxyethoxy)ethyl)-1-methyl-2-(thiazolo[4,5-b]pyrazin-2-ylamino)-1H-benzo[d]imidazole-5-carboxamide], the solubility at 16 h in series [1] stood at 12.2 µM (≈ 5.04 µg/mL). Regarding `Cn1c(Nc2nc3ccc(OC4CCOCC4)cc3o2)nc2cc(C(=O)NCCOCCO)ccc21` [Example 138, N-(2-(2-hydroxyethoxy)ethyl)-1-methyl-2-((6-((tetrahydro-2H-pyran-4-yl)oxy)benzo[d]oxazol-2-yl)amino)-1H-benzo[d]imidazole-5-carboxamide], in series [2], the EC50 worked out at 2 µM.

`Cn1c(Nc2nc3ccccc3o2)nc2cc(C(O)C(F)(F)F)ccc21` (stereo not drawn) [Example 142, 1-(2-(benzo[d]oxazol-2-ylamino)-1-methyl-1H-benzo[d]imidazol-5-yl)-2,2,2-trifluoroethan-1-ol]: the EC50 in series [2] came out at 3.3 µM.

Source of the values: patent publication US10766888B1, “HMOX1 inducers” (Mitobridge Inc., priority 2019, dated 2020).
